Results taken from article PMC12116762, “Topobexin targets the Topoisomerase II ATPase domain for beta isoform-selective inhibition and anthracycline cardioprotection” (Nature Communications, 2025).
Values joined by “and” are separate entries in the source; they are usually repeats but may differ in a detail not shown here. Equal values may be shown once. Read-outs that look alike come from different tables or passages of the source.

Key:
[1] = system: neonatal rat ventricular cardiomyocytes (NVCM); assay: Protection against DAU-induced cytotoxicity (LDH release) in NVCM; type: cell-based; design: key to Suppl.Fig.3 DAU-induced cytotoxicity (LDH release) in NVCM, mean of independent replicates / LDH release (DAU-induced cytotoxicity), mean of independent replicates: % of total LDH activity; details: for minimal effective concentration: protection against DAU 1.2 µM, n=4, read-out: LEC = lowest effective concentration; for LDH release: independent replicates; for LDH release (protection against DAU), mean of independent replicates: Suppl.Fig.8a
Summary of the method: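 Primary neonatal Wistar rat cardiomyocytes in serum- and pyruvate-free DMEM/F12 were pretreated with compound 3 h, then co-incubated 3 h with DAU (1.2 µM), or without DAU for inherent toxicity, then given a 48 h drug-free follow-up. Medium LDH activity (NAD+ reduction at 340 nm) expressed as % of total LDH.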

recombinant human TOP2B = molecular target: T1, recombinant human TOP2B (Homo sapiens, UniProt Q02880); assay: In vitro ATPase activity of TOP2B (coupled assay); type: biochemical; details: for SRbeta (SRTOP2B), TOP2 ATPase activity: TOP2A IC50 divided by TOP2B IC50; for IC50: n=3
T1 construct: Using recombinant full-length human TOP2A and TOP2B enzymes; YFP (N, cleaved yes); made in house; host or cells: HEK293F
Method: Topoisomerase proteins were diluted to 500 nM in storage buffer containing 20 mM HEPES pH 7.5, 500 mM NaCl, 0.5 mM TCEP, 25% glycerol, and 0.2 mg/mL BSA prior to use. A coupled assay was used to measure TOP2-catalyzed ATP hydrolysis in vitro[37] in Costar 96-well plates (Corning Incorporated). […] Reaction plates were pre-warmed to 30 °C for 5 min and ATP was added last to initiate the reaction. The reaction plate was placed in a CLARIOstarPlus plate reader (BMG Labtech) to measure NADH fluorescence at 30 °C every 30 s over 120 cycles using a 340-60 excitation filter and a 480-100 emission filter. Background fluorescence signals calculated from wells containing no ATP were subtracted from each measurement. The slope of NADH fluorescence decay in each well was calculated using the MARS software (BMG Labtech) and reaction wells that lacked topoisomerase inhibitor to account for photobleaching of NADH fluorescence served as background subtraction. Each presented data point was obtained from distinct sample. Values were normalized to untreated controls and plotted as a function of inhibitor concentration to determine IC50 values using Prism 9 (GraphPad).

[2] = 0.03125 μM, independent replicates, read-out: Normalized % TOP2B activity, ATPase
[3] = 0.0625 μM, independent replicates, read-out: Normalized % TOP2B activity, ATPase
[4] = 0.125 μM, independent replicates, read-out: Normalized % TOP2B activity, ATPase
[5] = 0.25 μM, independent replicates, read-out: Normalized % TOP2B activity, ATPase
[6] = 0.5 μM, independent replicates, read-out: Normalized % TOP2B activity, ATPase
[7] = 1 μM, independent replicates, read-out: Normalized % TOP2B activity, ATPase
[8] = 2 μM, independent replicates, read-out: Normalized % TOP2B activity, ATPase
[9] = 4 μM, independent replicates, read-out: Normalized % TOP2B activity, ATPase
[10] = 8 μM, independent replicates, read-out: Normalized % TOP2B activity, ATPase

T1 sequence (Q02880 1-1621 isoform Q02880-2): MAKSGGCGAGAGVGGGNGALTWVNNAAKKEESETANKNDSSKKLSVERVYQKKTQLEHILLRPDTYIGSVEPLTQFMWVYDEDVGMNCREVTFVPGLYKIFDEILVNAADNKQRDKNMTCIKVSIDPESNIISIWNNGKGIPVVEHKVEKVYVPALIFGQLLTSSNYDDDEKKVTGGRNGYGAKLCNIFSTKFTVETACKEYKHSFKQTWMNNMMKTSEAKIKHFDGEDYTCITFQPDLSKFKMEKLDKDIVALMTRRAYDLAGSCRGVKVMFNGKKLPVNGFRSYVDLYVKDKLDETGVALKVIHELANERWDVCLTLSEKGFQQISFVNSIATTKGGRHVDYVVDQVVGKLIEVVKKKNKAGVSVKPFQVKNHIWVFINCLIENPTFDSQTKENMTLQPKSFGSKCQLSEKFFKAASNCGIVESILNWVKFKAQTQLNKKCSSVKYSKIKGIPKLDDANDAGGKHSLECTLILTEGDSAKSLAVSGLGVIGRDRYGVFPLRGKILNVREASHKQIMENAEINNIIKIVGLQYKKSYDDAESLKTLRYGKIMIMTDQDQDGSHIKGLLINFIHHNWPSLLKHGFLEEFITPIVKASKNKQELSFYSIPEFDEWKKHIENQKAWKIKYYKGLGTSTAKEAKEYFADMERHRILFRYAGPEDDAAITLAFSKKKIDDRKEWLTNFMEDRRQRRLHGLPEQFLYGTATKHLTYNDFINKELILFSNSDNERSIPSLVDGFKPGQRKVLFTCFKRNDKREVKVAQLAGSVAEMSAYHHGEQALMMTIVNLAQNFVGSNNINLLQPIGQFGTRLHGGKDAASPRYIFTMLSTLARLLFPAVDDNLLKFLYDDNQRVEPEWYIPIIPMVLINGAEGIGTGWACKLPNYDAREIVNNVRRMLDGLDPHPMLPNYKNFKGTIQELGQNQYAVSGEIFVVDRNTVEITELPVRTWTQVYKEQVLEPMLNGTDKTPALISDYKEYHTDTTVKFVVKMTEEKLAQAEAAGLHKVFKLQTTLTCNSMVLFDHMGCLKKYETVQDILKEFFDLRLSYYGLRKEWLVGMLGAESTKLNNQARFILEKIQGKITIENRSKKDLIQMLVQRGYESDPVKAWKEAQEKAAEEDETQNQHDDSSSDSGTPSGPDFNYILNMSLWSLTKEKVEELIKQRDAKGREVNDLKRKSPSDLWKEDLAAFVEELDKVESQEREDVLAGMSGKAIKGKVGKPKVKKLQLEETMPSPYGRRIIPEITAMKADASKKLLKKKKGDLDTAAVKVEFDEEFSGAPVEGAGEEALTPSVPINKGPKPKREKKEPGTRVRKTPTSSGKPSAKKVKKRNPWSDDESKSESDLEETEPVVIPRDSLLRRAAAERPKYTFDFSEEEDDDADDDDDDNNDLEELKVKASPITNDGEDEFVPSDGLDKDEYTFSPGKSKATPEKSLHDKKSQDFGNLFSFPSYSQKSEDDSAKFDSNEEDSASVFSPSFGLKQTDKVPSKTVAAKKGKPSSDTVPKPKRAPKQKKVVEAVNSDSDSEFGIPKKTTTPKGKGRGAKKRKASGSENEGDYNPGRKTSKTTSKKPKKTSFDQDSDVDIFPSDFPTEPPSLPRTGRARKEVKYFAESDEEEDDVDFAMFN

| SMILES | LDH release, mean ([1]; compound 0.01 µM + DAU 1.2 µM) | Suppl.Fig.3 DAU-induced cytotoxicity (LDH release) in NVCM, mean of independent replicates ([1]; compound 0.01 µM + DAU 1.2 µM) | LDH release ([1]; compound 0.01 µM + DAU 1.2 µM) | LDH release, mean ([1]; compound 0.1 µM + DAU 1.2 µM) | Suppl.Fig.3 DAU-induced cytotoxicity (LDH release) in NVCM, mean of independent replicates ([1]; compound 0.1 µM + DAU 1.2 µM) | LDH release ([1]; compound 0.1 µM + DAU 1.2 µM) | LDH release, mean ([1]; compound 1 µM + DAU 1.2 µM) | Suppl.Fig.3 DAU-induced cytotoxicity (LDH release) in NVCM, mean of independent replicates ([1]; compound 1 µM + DAU 1.2 µM) | LDH release ([1]; compound 1 µM + DAU 1.2 µM) | LDH release, mean ([1]; compound 10 µM + DAU 1.2 µM) | Suppl.Fig.3 DAU-induced cytotoxicity (LDH release) in NVCM, mean of independent replicates ([1]; compound 10 µM + DAU 1.2 µM) | LDH release ([1]; compound 10 µM + DAU 1.2 µM) | remaining activity at 0.03125 µM (recombinant human TOP2B; [2]) [%] | remaining activity at 0.0625 µM (recombinant human TOP2B; [3]) [%] | remaining activity at 0.125 µM (recombinant human TOP2B; [4]) [%] | remaining activity at 0.25 µM (recombinant human TOP2B; [5]) [%] | remaining activity at 0.5 µM (recombinant human TOP2B; [6]) [%] | remaining activity at 1 µM (recombinant human TOP2B; [7]) [%] | SRbeta (SRTOP2B), TOP2 ATPase activity (recombinant human TOP2B) | IC50 (recombinant human TOP2B) | other results |
| --- | --- | --- | --- | --- | --- | --- | --- | --- | --- | --- | --- | --- | --- | --- | --- | --- | --- | --- | --- | --- | --- |
| CCCc1cc(=O)oc2c(C(=O)N3CCCc4ccccc43)c(OCCO)ccc12 [5c] | 43.3429 % of total LDH | 43.3429 | 38.8043 % of total LDH and 44.6863 % of total LDH and 52.1182 % of total LDH and 37.7626 % of total LDH | 37.9008 % of total LDH | 37.9008 | 31.4509 % of total LDH and 46.2465 % of total LDH and 39.969 % of total LDH and 33.9368 % of total LDH | 32.4872 % of total LDH | 32.4872 | 27.3874 % of total LDH and 32.0086 % of total LDH and 42.6349 % of total LDH and 27.9179 % of total LDH | 26.8851 % of total LDH | 26.8851 | 22.9974 % of total LDH and 24.3605 % of total LDH and 29.85 % of total LDH and 30.3325 % of total LDH | 99.9 | 98.5 | 96.8 | 89.9 | 77 | 61.7 | 3.8 | 400 nM and 410 nM | concentration providing significant cardioprotection ([1]; NVCM, DAU 1.2 µM): ≥ 0.1 µM; minimal effective concentration ([1]; Rattus norvegicus, Cardiomyocyte, NVCM): 0.1 µM; LDH release, mean ([1]; compound 30 µM + DAU 1.2 µM): 27.5762 % of total LDH; Suppl.Fig.3 DAU-induced cytotoxicity (LDH release) in NVCM, mean of independent replicates ([1]; compound 30 µM + DAU 1.2 µM): 27.5762; LDH release ([1]; compound 30 µM + DAU 1.2 µM): 24.4062 % of total LDH and 28.0233 % of total LDH and 28.184 % of total LDH and 29.6914 % of total LDH; LDH release, mean ([1]; compound 100 µM + DAU 1.2 µM): 31.1384 % of total LDH; Suppl.Fig.3 DAU-induced cytotoxicity (LDH release) in NVCM, mean of independent replicates ([1]; compound 100 µM + DAU 1.2 µM): 31.1384; LDH release ([1]; compound 100 µM + DAU 1.2 µM): 22.9096 % of total LDH and 39.1124 % of total LDH and 31.4385 % of total LDH and 31.093 % of total LDH; remaining activity at 2 µM (recombinant human TOP2B; [8]): 39.1%; remaining activity at 4 µM (recombinant human TOP2B; [9]): 16.4%; remaining activity at 8 µM (recombinant human TOP2B; [10]): 6.04% |
| CCCc1cc(=O)oc2c(C(=O)N3CCCc4ccccc43)c(OC)cc(OC)c12 [BNS-22] | 38.9374 % of total LDH | 38.9374 | 36.8796 % of total LDH and 42.975 % of total LDH and 39.3894 % of total LDH and 36.5057 % of total LDH | 33.1153 % of total LDH | 33.1153 | 30.1987 % of total LDH and 38.5314 % of total LDH and 34.1236 % of total LDH and 29.6074 % of total LDH | 28.1702 % of total LDH | 28.1702 | 24.6443 % of total LDH and 29.0885 % of total LDH and 32.0729 % of total LDH and 26.875 % of total LDH | 23.9768 % of total LDH | 23.9768 | 25.2929 % of total LDH and 19.0756 % of total LDH and 25.4172 % of total LDH and 26.1213 % of total LDH | – | – | – | – | – | – | 1.5 | 870 nM | minimal effective concentration ([1]; NVCM): 1 µM; LDH release, mean ([1]; compound 3 µM + DAU 1.2 µM): 24.9748 % of total LDH; Suppl.Fig.3 DAU-induced cytotoxicity (LDH release) in NVCM, mean of independent replicates ([1]; compound 3 µM + DAU 1.2 µM): 24.9748; LDH release ([1]; compound 3 µM + DAU 1.2 µM): 26.7887 % of total LDH and 18.8271 % of total LDH and 27.1872 % of total LDH and 27.096 % of total LDH; Normalized % TOP2B activity, ATPase (recombinant human TOP2B; 0.03125 μM, independent replicates): 92.74% and 92.18% and 98.3%; Normalized % TOP2B activity, ATPase (recombinant human TOP2B; 0.0625 μM, independent replicates): 92.24% and 94.66% and 102.1588%; Normalized % TOP2B activity, ATPase (recombinant human TOP2B; 0.125 μM, independent replicates): 100.3668% and 84.21% and 108.4459%; Normalized % TOP2B activity, ATPase (recombinant human TOP2B; 0.25 μM, independent replicates): 91.2179% and 87.24% and 97.62%; Normalized % TOP2B activity, ATPase (recombinant human TOP2B; 0.5 μM, independent replicates): 80.5% and 76.19% and 88.45%; Normalized % TOP2B activity, ATPase (recombinant human TOP2B; 1 μM, independent replicates): 58.26% and 48.84% and 67.64%; Normalized % TOP2B activity, ATPase (recombinant human TOP2B; 2 μM, independent replicates): 31.308% and 30.02% and 38.85%; Normalized % TOP2B activity, ATPase (recombinant human TOP2B; 4 μM, independent replicates): 10.88% and 8.636% and 13.51%; Normalized % TOP2B activity, ATPase (recombinant human TOP2B; 8 μM, independent replicates): 2.82% and 1.793% and 10.43%; Normalized % TOP2B activity, ATPase (recombinant human TOP2B; 16 μM, independent replicates): 1.695% and 1.187% and 0.8652%; Normalized % TOP2B activity, ATPase (recombinant human TOP2B; 32 μM, independent replicates): 0.8806% and 0.9028% and 0.7954%; selectivity ratio in favour of TOP2B (SRTOP2B) (recombinant human TOP2B; ATP hydrolysis and DNA decatenation): 1.5–1.6 |
| C[C@@H](CN1CC(=O)NC(=O)C1)N1CC(=O)NC(=O)C1 [dexrazoxane] | – | – | – | – | – | – | – | – | – | – | – | – | 97.9 | 99.9 | 96.3 | 88.7 | 80.9 | 74.8 | 0.89 | 2550 nM | concentration needed for similar extent of protection, relative to topobexin (9) ([1]; NVCM): at least 10 ×; LDH release (protection against DAU), mean of independent replicates ([1]; compound 0.1 µM + DAU 1.2 µM, NVCM): 48.0486; LDH release (protection against DAU), mean of independent replicates ([1]; compound 1 µM + DAU 1.2 µM, NVCM): 43.2962; LDH release (protection against DAU), mean of independent replicates ([1]; compound 10 µM + DAU 1.2 µM, NVCM): 41.8711; LDH release (protection against DAU), mean of independent replicates ([1]; compound 100 µM + DAU 1.2 µM, NVCM): 36.8821; remaining activity at 2 µM (recombinant human TOP2B; [8]): 68.4%; remaining activity at 4 µM (recombinant human TOP2B; [9]): 45%; remaining activity at 8 µM (recombinant human TOP2B; [10]): 24.3%; remaining activity at 16 µM (recombinant human TOP2B; 16 μM, independent replicates, read-out: Normalized % TOP2B activity, ATPase): 14.6%; remaining activity at 32 µM (recombinant human TOP2B; 32 μM, independent replicates, read-out: Normalized % TOP2B activity, ATPase): 13.2%; relative inhibition of TOP2A vs TOP2B (recombinant human TOP2B; ATPase): inhibits ATP hydrolysis for both isoforms with equal potency |
